Measured values: article PMC11403612, “Preparation and Preclinical Characterization of a Simple Ester for Dual Exogenous Supply of Lactate and Beta-hydroxybutyrate” (Journal of Agricultural and Food Chemistry, 2024)

Legend:
rats = assay: Behaviour and tolerability observations in extended pharmacokinetics study; format: in vivo
Method: Animals (SD rats, both male and female, 7–9 weeks) were individually housed from 24 h before dosing until the end of the study. Food was withdrawn the night before initiation of study; following food withdrawal, animals were maintained on glucose water containing 5% w/v glucose and 1% saline to suppress endogenous ketone production throughout the study. Food was returned 8 h post-test article dosing. Animals were monitored for distress or notable changes in behavior during the study. The animals were euthanized by CO2 inhalation 2 h after the last sample collection time point.

[1] = test system: plasma free fatty acids (FFA); assay: Plasma free fatty acids after oral LaKe in rats; format: in vivo, Sprague–Dawley rats; details: 4.5 g/kg oral
Method: Male Sprague–Dawley rats (300–350g, Taconic, Ry, Denmark) were kept for acclimatization at a constant temperature of 23 °C with a 12 h light-dark cycle and with unlimited access to food and water. All animal handling was in accordance with national guidelines in Denmark and the guidelines from the Directive 2010/63/EU of the European Parliament on the protection of animals used for scientific purposes, and all experiments conformed to Danish Law (Act. No. 1306 of 23/11/2007). The experimental protocol was approved by the Danish Animal Expectorate (2018-15-0201-01475).
The rats were randomly selected to receive either LaKe (n = 8) or placebo (n = 8). […]
Concentrations of non-esterified free fatty acids (FFA) were measured using a NEFA-HR(2) kit (Wako, Chemicals Gmbh, Germany). Absorbance was measured by spectrometry (PHERAstar FS, BMG LABTECH, […]
Quantification of N-L-lactoyl phenylalanine (Lac-Phe) by LC-MS/MS […]
Pure calibrant samples were prepared from an authentic standard compound (N-L-lactoyl phenylalanine), using the plasma sample preparation method at concentrations equivalent to […] in the original sample. The lower limit of quantification for N-L-lactoyl phenylalanine (Lac-Phe) quantification was estimated to 10 nM. […]

SMILES: CC(O)CCOC(=O)C(C)O (stereo not drawn) [LaKe, 3-hydroxybutyl 2-hydroxypropanoate]
- behaviour observations (rats; 12 g/kg, at 2 and 8 h following administration, some of the rats, normalized at 10 h): slightly reduced activity and a hunched posture
- signs of toxicity (rats; 10 h following administration, any of the doses): No signs of toxicity or deviation from normal behavior
- behaviour observations (rats; lower doses (1.3 g/kg and 4.1 g/kg), all time points): normal behavior was observed at all time points
- overall tolerability (rats; rats, oral, up to 12 g/kg): well tolerated
- maximum suppression of FFA levels ([1]; 75 min time point, compared to vehicle): > 40%
- change in plasma free fatty acids compared to vehicle control ([1]; from 15 min until 105 min): decrease
